Results: patent US10344060B2 (priority 2013, dated 2019)
Where “and” joins values, the source holds several entries; their conditions need not be identical. Equal entries are not always repeated.

Target: hNav1.4 (Homo sapiens, UniProt P35499)
Test: cell-based
Assay type: cell-based
Conditions: ratio of PX tonic IC50 values

Sequence of hNav1.4 (P35499 whole entry): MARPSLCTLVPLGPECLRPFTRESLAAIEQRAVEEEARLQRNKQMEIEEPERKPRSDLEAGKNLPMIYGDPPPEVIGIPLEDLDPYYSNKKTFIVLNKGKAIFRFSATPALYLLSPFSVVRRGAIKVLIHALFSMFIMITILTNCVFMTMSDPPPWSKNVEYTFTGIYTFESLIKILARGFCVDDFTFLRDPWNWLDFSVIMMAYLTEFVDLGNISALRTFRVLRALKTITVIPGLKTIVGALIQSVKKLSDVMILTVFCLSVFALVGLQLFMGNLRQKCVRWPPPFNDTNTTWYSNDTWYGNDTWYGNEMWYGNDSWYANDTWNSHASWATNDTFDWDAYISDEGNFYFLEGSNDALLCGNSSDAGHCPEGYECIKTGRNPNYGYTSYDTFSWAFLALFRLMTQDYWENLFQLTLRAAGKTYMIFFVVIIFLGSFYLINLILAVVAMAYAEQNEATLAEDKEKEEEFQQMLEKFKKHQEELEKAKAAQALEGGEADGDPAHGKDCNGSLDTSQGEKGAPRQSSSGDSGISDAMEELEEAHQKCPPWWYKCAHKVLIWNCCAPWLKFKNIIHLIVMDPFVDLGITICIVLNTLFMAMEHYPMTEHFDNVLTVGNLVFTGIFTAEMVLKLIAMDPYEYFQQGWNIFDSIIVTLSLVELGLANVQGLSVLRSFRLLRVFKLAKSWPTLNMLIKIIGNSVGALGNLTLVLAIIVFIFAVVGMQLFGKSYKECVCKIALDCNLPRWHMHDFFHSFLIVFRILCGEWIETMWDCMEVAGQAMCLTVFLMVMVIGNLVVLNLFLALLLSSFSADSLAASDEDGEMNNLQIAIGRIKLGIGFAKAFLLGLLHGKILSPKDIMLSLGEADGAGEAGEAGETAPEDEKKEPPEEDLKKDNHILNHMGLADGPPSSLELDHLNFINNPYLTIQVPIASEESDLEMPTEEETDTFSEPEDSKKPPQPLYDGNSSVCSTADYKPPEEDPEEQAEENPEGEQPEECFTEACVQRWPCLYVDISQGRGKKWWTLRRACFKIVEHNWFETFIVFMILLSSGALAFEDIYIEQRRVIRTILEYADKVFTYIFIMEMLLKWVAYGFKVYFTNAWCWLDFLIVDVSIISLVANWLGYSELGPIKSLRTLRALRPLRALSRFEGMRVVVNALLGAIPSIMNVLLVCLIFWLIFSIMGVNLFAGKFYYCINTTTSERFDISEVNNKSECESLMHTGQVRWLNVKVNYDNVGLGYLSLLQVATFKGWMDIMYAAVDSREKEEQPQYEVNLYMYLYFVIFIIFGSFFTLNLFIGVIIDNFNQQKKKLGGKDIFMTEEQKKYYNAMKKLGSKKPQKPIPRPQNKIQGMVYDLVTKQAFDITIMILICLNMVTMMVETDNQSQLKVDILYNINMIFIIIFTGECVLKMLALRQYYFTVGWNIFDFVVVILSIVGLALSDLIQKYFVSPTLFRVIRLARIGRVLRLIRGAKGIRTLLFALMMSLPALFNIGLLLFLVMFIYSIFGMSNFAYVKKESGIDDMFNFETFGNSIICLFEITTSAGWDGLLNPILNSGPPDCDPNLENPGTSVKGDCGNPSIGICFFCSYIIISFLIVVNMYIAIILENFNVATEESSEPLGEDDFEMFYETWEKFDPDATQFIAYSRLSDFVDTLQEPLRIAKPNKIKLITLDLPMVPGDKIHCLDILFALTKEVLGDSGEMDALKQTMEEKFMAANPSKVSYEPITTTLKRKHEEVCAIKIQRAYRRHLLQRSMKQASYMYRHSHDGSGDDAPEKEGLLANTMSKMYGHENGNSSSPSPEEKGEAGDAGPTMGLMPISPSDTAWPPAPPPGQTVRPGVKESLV

Row | Compound | Nav1.4/Nav1.7 (Table 13) | Nav1.4/Nav1.7 (Table 12)
1 | CCCC[C@@H]1NC(=O)[C@H](Cc2c[nH]c3ccccc23)NC(=O)[C@H](CCCCN)NC(=O)[C@H](CCC(N)=O)NC(=O)[C@@H](NC(=O)[C@H](Cc2ccc(O)cc2)NC(=O)[C@@H](N)Cc2cn(CCOCCOCCOCCOCCOCCOCCOCCOCCOCCOCCN)nn2)CSSC[C@@H]2NC(=O)[C@@H]3CSSC[C@@H](C(=O)N[C@@H](CCCNC(=N)N)C(=O)N[C@@H](CCCCN)C(=O)N[C@@H](CCC(=O)O)C(=O)N[C@H](C(N)=O)[C@@H](C)CC)NC(=O)[C@H](Cc4c[nH]c5ccccc45)NC(=O)[C@H](CC(C)C)NC(=O)[C@H](CCCCN)NC(=O)[C@H](CSSC[C@H](NC(=O)[C@H]([C@@H](C)O)NC(=O)[C@H](Cc4c[nH]c5ccccc45)NC1=O)C(=O)N[C@@H](CC(=O)O)C(=O)N[C@@H](CO)C(=O)N[C@@H](CCCCN)C(=O)N[C@@H](CCCNC(=N)N)C(=O)N[C@@H](C)C(=O)N3)NC(=O)[C@H](CCCNC(=N)N)NC(=O)[C@H](CC(C)C)NC(=O)CNC(=O)[C@H](CCC(=O)O)NC2=O [compound 883] | 120 | –
2 | CCCC[C@@H]1NC(=O)[C@H](Cc2c[nH]c3ccccc23)NC(=O)[C@H](CCCCN)NC(=O)[C@H](CCC(N)=O)NC(=O)[C@@H](NC(=O)[C@H](Cc2ccc(O)cc2)NC(=O)[C@@H](N)Cc2cn(CCOCCOCCOCCOCCOCCOCCOCCOCCOCCOCCOCCOCCOCCOCCOCCOCCOCCOCCOCCOCCOCCOCCOCCNC(=O)c3cc(CN)cc(C(=O)NCCOCCOCCOCCOCCOCCOCCOCCOCCOCCOCCOCCOCCOCCOCCOCCOCCOCCOCCOCCOCCOCCOCCOCCn4cc(C[C@H](N)C(=O)N[C@@H](Cc5ccc(O)cc5)C(=O)N[C@H]5CSSC[C@@H]6NC(=O)[C@@H]7CSSC[C@@H](C(=O)N[C@@H](CCCNC(=N)N)C(=O)N[C@@H](CCCCN)C(=O)N[C@@H](CCC(=O)O)C(=O)N[C@H](C(N)=O)[C@@H](C)CC)NC(=O)[C@H](Cc8c[nH]c9ccccc89)NC(=O)[C@H](CC(C)C)NC(=O)[C@H](CCCCN)NC(=O)[C@H](CSSC[C@H](NC(=O)[C@H]([C@@H](C)O)NC(=O)[C@H](Cc8c[nH]c9ccccc89)NC(=O)[C@H](CCCC)NC(=O)[C@H](Cc8c[nH]c9ccccc89)NC(=O)[C@H](CCCCN)NC(=O)[C@H](CCC(N)=O)NC5=O)C(=O)N[C@@H](CC(=O)O)C(=O)N[C@@H](CO)C(=O)N[C@@H](CCCCN)C(=O)N[C@@H](CCCNC(=N)N)C(=O)N[C@@H](C)C(=O)N7)NC(=O)[C@H](CCCNC(=N)N)NC(=O)[C@H](CC(C)C)NC(=O)CNC(=O)[C@H](CCC(=O)O)NC6=O)nn4)c3)nn2)CSSC[C@@H]2NC(=O)[C@@H]3CSSC[C@@H](C(=O)N[C@@H](CCCNC(=N)N)C(=O)N[C@@H](CCCCN)C(=O)N[C@@H](CCC(=O)O)C(=O)N[C@H](C(N)=O)[C@@H](C)CC)NC(=O)[C@H](Cc4c[nH]c5ccccc45)NC(=O)[C@H](CC(C)C)NC(=O)[C@H](CCCCN)NC(=O)[C@H](CSSC[C@H](NC(=O)[C@H]([C@@H](C)O)NC(=O)[C@H](Cc4c[nH]c5ccccc45)NC1=O)C(=O)N[C@@H](CC(=O)O)C(=O)N[C@@H](CO)C(=O)N[C@@H](CCCCN)C(=O)N[C@@H](CCCNC(=N)N)C(=O)N[C@@H](C)C(=O)N3)NC(=O)[C@H](CCCNC(=N)N)NC(=O)[C@H](CC(C)C)NC(=O)CNC(=O)[C@H](CCC(=O)O)NC2=O [Homodimeric Conjugate No. 7] | 94 | –
3 | C#CC[C@@H]1NC(=O)[C@@H]2CSSC[C@H](NC(=O)[C@H](Cc3ccc(O)cc3)NC(=O)[C@@H](N)CC#N)C(=O)N[C@@H](CCC(N)=O)C(=O)N[C@@H](CCCCN)C(=O)N[C@@H](Cc3c[nH]c4ccccc34)C(=O)N[C@@H](CCCC)C(=O)N[C@@H](Cc3c[nH]c4ccccc34)C(=O)N[C@@H]([C@@H](C)O)C(=O)N[C@H]3CSSC[C@H](NC(=O)[C@H](CCC(=O)O)NC(=O)[C@H](CC(C)C)NC(=O)CNC1=O)C(=O)N[C@@H](CCCCN)C(=O)N[C@@H](CC(C)C)C(=O)N[C@@H](Cc1c[nH]c4ccccc14)C(=O)N[C@H](C(=O)N[C@@H](CCCNC(=N)N)C(=O)N[C@@H](CCCCN)C(=O)N[C@@H](Cc1ccc(O)cc1)C(=O)N[C@H](C(N)=O)[C@@H](C)CC)CSSC[C@H](NC(=O)[C@H](C)NC(=O)[C@H](CCCNC(=N)N)NC(=O)[C@H](CCCCN)NC(=O)[C@H](CO)NC(=O)[C@H](CC(=O)O)NC3=O)C(=O)N2 [compound 397] | – | 20
4 | C#CC[C@H](N)C(=O)NCCOCCOCCOCCOCCC(=O)NCCCC[C@@H]1NC(=O)[C@H](CCCNC(=N)N)NC(=O)[C@H](CCCCN)NC(=O)[C@H](CO)NC(=O)[C@H](CC(=O)O)NC(=O)[C@@H]2CSSC[C@@H]3NC(=O)[C@H](CCCNC(=N)N)NC(=O)[C@H](CC(C)C)NC(=O)CNC(=O)[C@H](CCC(=O)O)NC(=O)[C@H](CSSC[C@H](NC(=O)[C@H](Cc4ccc(O)cc4)NC(=O)[C@@H](N)CCC)C(=O)N[C@@H](CCC(N)=O)C(=O)N[C@@H](CCCCN)C(=O)N[C@@H](Cc4c[nH]c5ccccc45)C(=O)N[C@@H](CCCC)C(=O)N[C@@H](Cc4c[nH]c5ccccc45)C(=O)N[C@@H]([C@@H](C)O)C(=O)N2)NC(=O)[C@H](CSSC[C@@H](C(=O)N[C@@H](CCCNC(=N)N)C(=O)N[C@@H](CCCCN)C(=O)N[C@H](C(=O)N[C@H](C(N)=O)[C@@H](C)CC)[C@@H](C)CC)NC(=O)[C@H](Cc2c[nH]c4ccccc24)NC(=O)[C@H](CC(C)C)NC(=O)[C@H](CCCCN)NC3=O)NC1=O [compound 432] | – | 12
5 | CCCC[C@@H]1NC(=O)[C@H](Cc2c[nH]c3ccccc23)NC(=O)[C@H](CCCCN)NC(=O)[C@H](CCC(N)=O)NC(=O)[C@@H](NC(=O)[C@H](Cc2ccc(O)cc2)NC(=O)[C@@H](N)Cc2cn(CCOCCOCCOCCOCCOCCOCCOCCOCCOCCOCCOCCOCCOCCOCCOCCOCCOCCOCCOCCOCCOCCOCCOCCNC(=O)c3cc(CNC(=O)CSCc4ccccc4)cc(C(=O)NCCOCCOCCOCCOCCOCCOCCOCCOCCOCCOCCOCCOCCOCCOCCOCCOCCOCCOCCOCCOCCOCCOCCOCCn4cc(C[C@H](N)C(=O)N[C@@H](Cc5ccc(O)cc5)C(=O)N[C@H]5CSSC[C@@H]6NC(=O)[C@@H]7CSSC[C@@H](C(=O)N[C@@H](CCCNC(=N)N)C(=O)N[C@@H](CCCCN)C(=O)N[C@H](C(=O)N[C@H](C(N)=O)[C@@H](C)CC)[C@@H](C)CC)NC(=O)[C@H](Cc8c[nH]c9ccccc89)NC(=O)[C@H](CC(C)C)NC(=O)[C@H](CCCCN)NC(=O)[C@H](CSSC[C@H](NC(=O)[C@H]([C@@H](C)O)NC(=O)[C@H](Cc8c[nH]c9ccccc89)NC(=O)[C@H](CCCC)NC(=O)[C@H](Cc8c[nH]c9ccccc89)NC(=O)[C@H](CCCCN)NC(=O)[C@H](CCC(N)=O)NC5=O)C(=O)N[C@@H](CC(=O)O)C(=O)N[C@@H](CO)C(=O)N[C@@H](CCCCN)C(=O)N[C@@H](CCCNC(=N)N)C(=O)N[C@@H](C)C(=O)N7)NC(=O)[C@H](CCCNC(=N)N)NC(=O)[C@H](CC(C)C)NC(=O)CNC(=O)[C@H](CCC(=O)O)NC6=O)nn4)c3)nn2)CSSC[C@@H]2NC(=O)[C@@H]3CSSC[C@@H](C(=O)N[C@@H](CCCNC(=N)N)C(=O)N[C@@H](CCCCN)C(=O)N[C@H](C(=O)N[C@H](C(N)=O)[C@@H](C)CC)[C@@H](C)CC)NC(=O)[C@H](Cc4c[nH]c5ccccc45)NC(=O)[C@H](CC(C)C)NC(=O)[C@H](CCCCN)NC(=O)[C@H](CSSC[C@H](NC(=O)[C@H]([C@@H](C)O)NC(=O)[C@H](Cc4c[nH]c5ccccc45)NC1=O)C(=O)N[C@@H](CC(=O)O)C(=O)N[C@@H](CO)C(=O)N[C@@H](CCCCN)C(=O)N[C@@H](CCCNC(=N)N)C(=O)N[C@@H](C)C(=O)N3)NC(=O)[C@H](CCCNC(=N)N)NC(=O)[C@H](CC(C)C)NC(=O)CNC(=O)[C@H](CCC(=O)O)NC2=O [Homodimeric Conjugate No. 2, Bis-{Atz(PEG23*)-[Nle6]JzTx-V(1-29)}-5-((2-(benzylthio)acetamido)methyl)isophthalamide] | 5 and 3 | –
6 | CCCC[C@@H]1NC(=O)[C@H](Cc2c[nH]c3ccccc23)NC(=O)[C@H](CCCCN)NC(=O)[C@H](CCC(N)=O)NC(=O)[C@@H](NC(=O)[C@@H](N)Cc2ccc(O)cc2)CSSC[C@@H]2NC(=O)[C@@H]3CSSC[C@@H](C(=O)N[C@@H](CCCNC(=N)N)C(=O)N[C@@H](CCCCN)C(=O)N[C@@H](CCC(=O)O)C(=O)N[C@H](C(N)=O)[C@@H](C)CC)NC(=O)[C@H](Cc4c[nH]c5ccccc45)NC(=O)[C@H](CC(C)C)NC(=O)[C@H](CCCCN)NC(=O)[C@H](CSSC[C@H](NC(=O)[C@H]([C@@H](C)O)NC(=O)[C@H](Cc4c[nH]c5ccccc45)NC1=O)C(=O)N[C@@H](CC(=O)O)C(=O)N[C@@H](CO)C(=O)N[C@@H](CCCCN)C(=O)N[C@@H](CCCNC(=N)N)C(=O)N[C@@H](C)C(=O)N3)NC(=O)[C@H](CCCNC(=N)N)NC(=O)[C@H](CC(C)C)NC(=O)CNC(=O)[C@H](Cc1cn(CCCOCCOCCOCCOCCOCCOCCOCCOCCOCCOCCN)nn1)NC2=O [compound 406] | 11 | –
7 | C#CC[C@H](N)C(=O)NCCCC[C@@H]1NC(=O)[C@H](CCCNC(=N)N)NC(=O)[C@H](CCCCN)NC(=O)[C@H](CO)NC(=O)[C@H](CC(=O)O)NC(=O)[C@@H]2CSSC[C@@H]3NC(=O)[C@H](CCC(=O)O)NC(=O)[C@H](CC(C)C)NC(=O)CNC(=O)[C@H](CCC(=O)O)NC(=O)[C@H](CSSC[C@H](NC(=O)[C@H](Cc4ccc(O)cc4)NC(=O)[C@@H](N)CC#N)C(=O)N[C@@H](CCC(N)=O)C(=O)N[C@@H](CCCCN)C(=O)N[C@@H](Cc4c[nH]c5ccccc45)C(=O)N[C@@H](CCCC)C(=O)N[C@@H](Cc4c[nH]c5ccccc45)C(=O)N[C@@H]([C@@H](C)O)C(=O)N2)NC(=O)[C@H](CSSC[C@@H](C(=O)N[C@@H](CCCNC(=N)N)C(=O)N[C@@H](CCCCN)C(=O)N[C@@H](Cc2ccc(O)cc2)C(=O)N[C@H](C(N)=O)[C@@H](C)CC)NC(=O)[C@H](Cc2c[nH]c4ccccc24)NC(=O)[C@H](CC(C)C)NC(=O)[C@H](CCCCN)NC3=O)NC1=O [compound 394] | – | 19130
